Reference: publication PMC9501525, “Conjugation of a Cationic Cell-Penetrating Peptide with a Novel Kunitzin-like Trypsin Inhibitor: New Insights for Enhancement of Peptide Bioactivities” (Pharmaceutics, 2022)
pIC50, pKi: −log10 of the molar value. Peptide text beside a SMILES is read from it.

Legend:
[1] = system: MRSA (NCTC 12493); type: cell-based, methicillin-resistant Staphylococcus aureus; conditions: for MIC: MHB, 5 × 10^5 CFU/mL, overnight; for MBC: clear wells spotted onto MHA
Experimental: The antimicrobial efficacy screening of the purified peptides was performed by MIC/MBC experiments on the following six different bacteria and an opportunistic pathogenic yeast: E. coli (ATCC 8739), Klebsiella pneumoniae (K. pneumoniae) (ATCC 43816), Pseudomonas aeruginosa (P. aeruginosa) (ATCC 9027), Staphylococcus aureus (S. aureus) (ATCC 6538), methicillin-resistant Staphylococcus aureus (MRSA) (NCTC 12493), Enterococcus faecium (E. faecium) (NCTC 12697), and Candida albicans (C. albicans) (ATCC 10231). First, frozen beads of respective cultures were inoculated into Mueller Hinton broth (MHB) medium and incubated overnight at 37 °C. Next, 500 µL of respective suspensions were added to the fresh MHB medium for incubation, and then sub-cultured until reaching the log growth phase, which was determined by measuring the absorbance of cultures at a wavelength of 550 nm. Then, the subcultures were diluted to 5 × 10^5 CFU/mL and 99 µL of suspension was removed and mixed with 1 µL of peptide solution at different concentrations (double-dilution of 12,800 to 100 µM) in a 96-well plate. The blank control, vehicle control, growth control, and the positive control groups were prepared according to the conditions mentioned previously. The peptide solutions were added to the plate and mixed with the diluted microbial suspensions. After overnight incubation, the absorbance at 550 nm of each well was measured with a Synergy HT plate reader (Biotech, Minneapolis, MN, USA). Subsequently, the samples in each clear well were spotted onto Mueller Hinton agar (MHA) plates for the MBC assays of the tested peptides.

[2] = target: chymotrypsin (Bos taurus, UniProt P00766); assay: Chymotrypsin inhibition determination (fluorogenic substrate, Morrison Ki); type: biochemical; conditions: Morrison equation; substrate succinyl-Ala-Ala-Pro-Phe-AMC in PBS; Km = 17.15 μM, [S] = 42.86 μM, Et = 0.0020 μM; peptide 0.1–100 µM; nine replications in three experiments; N.I. = no inhibitory effect
Experimental: Phe-Pro-Arg-AMC (Bachem, Merseyside, UK) and succinyl-Ala-Ala-Pro-Phe-AMC (Bachem, Merseyside, UK) were used as substrates for trypsin and chymotrypsin inhibition determinations, respectively. Serial peptide dilutions (0.1–100 µM in phosphate buffered saline (PBS)) were incubated with 180 µL of substrate solution (50 µM in PBS) in a black 96-well plate under dark conditions for 10 min. Immediately prior to measurement, 10 µL of trypsin/chymotrypsin working solution (0.1 µM in PBS) was added to each well (final volume of 210 µL) in the plate. Subsequently, the fluorescence intensity was measured with the FLUO star OPTIMA plate reader (BMG Labtech, Ortenberg, Germany). The whole measurement process lasted for 30 min and was carried out at an emission wavelength of 460 nm and an excitation wavelength of 395 nm. The inhibition curves of trypsin and chymotrypsin were analyzed by non-linear regression using the Morrison equation in Prism 9 (Trypsin Km = 67.38 μM; Chymotrypsin Km = 17.15 μM; [S] = 42.86 μM; Et = 0.0020 μM).

[3] = system: E. coli; assay: Salt sensitivity assay (MIC in the presence of salts); type: cell-based, Escherichia coli; conditions: for MIC in the presence of NH4Cl: MHB + 6 μM NH4Cl; for MIC in the presence of NH4Cl / MIC in the presence of KCl / MIC in the presence of NaCl / MIC in the presence of PBS: 18–20 h; for MIC in the presence of MgCl2: MHB + 1 mM MgCl2, 18–20 h; for MIC in the presence of CaCl2: MHB + 2.5 mM CaCl2, 18–20 h; for MIC in the presence of FeCl3: MHB + 4 mM FeCl3, 18–20 h; for MIC in the presence of KCl: MHB + 4.5 mM KCl; for MIC in the presence of ZnCl2: MHB + 8 mM ZnCl2, 18–20 h; for MIC in the presence of NaCl: MHB + 150 mM NaCl; for MIC in the presence of PBS: MHB, PBS (no added salt), 37 °C
Experimental: To determine the salt sensitivity of peptides, E. coli was used to detect the changes in MIC values of peptides under different salt conditions. The bacterial culture method used was similar to the MIC experimental method described earlier. Different concentrations of salts (150 mM NaCl, 4.5 mM KCl, 6 μM NH4Cl, 1 mM MgCl2, 1 mM MgCl2, 8 mM ZnCl2, 2.5 mM CaCl2, 4 mM FeCl3) were added to the MHB to examine the effects of each salt on the anti-E. coli activities of the peptides, as described in a previous study. Then, the bacterial dilution with salt was mixed well with peptides of different concentrations, similar to the MIC/MBC experiments, and cultured at 37 °C. After 18–20 h of incubation, the absorbance of each well was measured at 550 nm using the Synergy HT plate reader.

[4] = system: H838 human lung cancer cells; assay: MTT cell antiproliferation assay; type: cell-based; conditions: 24 h of treatment, serum free medium, 10^−9–10^−4 M
Experimental: (§1) The antiproliferative activities of the synthesized peptides were assessed on six human cancer cell lines (PC-3, H157, H460, H838, MCF-7, U251MG) and two human normal cell lines (HMEC-1 and MRC-5) using the MTT cell viability assay. Human lung cancer cells (H838, H157, and H460) and human prostate cancer cells (PC-3) were cultured in complete growth medium (CGM) (Roswell Park Memorial Institute (RPMI) 1640 Medium (Gibco, Paisley, UK): Fetal bovine serum (FBS) (Gibco, Campinas, Brazil): Penicillin-streptomycin solution (PS) (Gibco, Grand Island, NY, USA) 89/10/1 v/v/v). Human glioblastoma astrocytoma (U251MG) and human breast cancer cell (MCF-7) were cultured in complete growth medium (Dulbecco’s Modified Eagle medium (DMEM) (Gibco, Paisley, UK): FBS: PS 89/10/1 v/v/v). Human microvascular endothelial cells (HMEC-1) and human pulmonary fibroblast cells (MRC-5) were cultured in MCDB131 medium (supplemented with 10% FBS, 1% PS, 10 ng/mL epidermal growth factor, 1 µg/mL hydrocortisone, and 10 mM glutamine) and Eagle’s Minimal Essential Medium (EMEM) (supplemented with 10% FBS and 1% PS), respectively. Cell suspension, containing 8 × 10^3 cells per 100 µL, was first added to 96-well plates for overnight incubation. Then, the adherent cells in the 96-well plates were subject to cell starvation using the serum free medium treatment for at least 4 h to ensure that the cells were all in the same growth cycle. The peptide solutions, with final concentrations of 10^−9–10^−4 M, were prepared with serum free medium and added onto the plate. In addition, Triton X-100 (0.1%) (Sigma-Aldrich, St. Louis, MO, USA) was used as a positive control. After 24 h of administration, the MTT solution was added to the plate and incubated for 2 h. Then, the supernatant was discarded and DMSO was added to dissolve the purple formazan crystals. The absorbance was measured in all wells using the Synergy HT plate reader at a wavelength of 570 nm.

[5] = system: HMEC-1 human microvascular endothelial cells; assay: MTT cell antiproliferation assay; type: cell-based; conditions: HMEC-1 normal cells, 24 h of treatment, 10^−9–10^−4 M
Experimental: as §1

[6] = system: H157 human lung cancer cells; assay: MTT cell antiproliferation assay; type: cell-based; conditions: 24 h of treatment, serum free medium, 10^−9–10^−4 M
Experimental: as §1

[7] = system: PC-3 human prostate cancer cells; assay: MTT cell antiproliferation assay; type: cell-based; conditions: PC-3, MTT, 24 h of treatment, serum free medium, 10^−9–10^−4 M
Experimental: as §1

SMILES | MIC [1] [µM] | MBC [1] [µM] | pKi [2] | MIC in the presence of NH4Cl [3] [µM] | MIC in the presence of MgCl2 [3] [µM] | MIC in the presence of CaCl2 [3] [µM] | MIC in the presence of FeCl3 [3] [µM] | MIC in the presence of KCl [3] [µM] | MIC in the presence of ZnCl2 [3] [µM] | MIC in the presence of NaCl [3] [µM] | MIC in the presence of PBS [3] [µM] | Chymotrypsin Ki [2] | pIC50 [4] | pIC50 [5] | pIC50 [6] | pIC50 [7]
CC(C)C[C@H](NC(=O)[C@H](CCCCN)NC(=O)[C@H](C)NC(=O)[C@H](C)N)C(=O)N1CCC[C@H]1C(=O)N[C@@H](Cc1ccccc1)C(=O)N[C@@H](CCCNC(=N)N)C(=O)N[C@H]1CSSC[C@@H](C(=O)O)NC(=O)[C@H](Cc2ccccc2)NC(=O)[C@H](C)NC(=O)[C@H](C)NC(=O)[C@H](Cc2ccccc2)NC1=O [F9-KOV2] (HELM PEPTIDE1{A.A.K.L.P.F.R.C.F.A.A.F.C}$PEPTIDE1,PEPTIDE1,8:R3-13:R3$$$V2.0) | >128 | >128 | 5.66 | >128 | >128 | >128 | >128 | >128 | >128 | >128 | >128 |  |  |  |  | 
CC(C)C[C@H](NC(=O)[C@H](CCCCN)NC(=O)[C@H](C)NC(=O)[C@H](C)N)C(=O)N1CCC[C@H]1C(=O)N[C@@H](Cc1ccccc1)C(=O)N[C@@H](CCCNC(=N)N)C(=O)N[C@H]1CSSC[C@@H](C(=O)O)NC(=O)[C@H](Cc2ccccc2)NC(=O)[C@H](C)NC(=O)[C@H](C)NC(=O)[C@H](CCCCN)NC1=O [Kunitzin-OV2] (HELM PEPTIDE1{A.A.K.L.P.F.R.C.K.A.A.F.C}$PEPTIDE1,PEPTIDE1,8:R3-13:R3$$$V2.0) | >128 | >128 |  | >128 | >128 | >128 | >128 | >128 | >128 | >128 | 128 | N.I. |  |  |  | 
CC(C)C[C@H](NC(=O)[C@H](CCCCN)NC(=O)[C@H](C)NC(=O)[C@H](C)NC(=O)CNC(=O)CNC(=O)[C@H](CCCNC(=N)N)NC(=O)[C@H](CCCNC(=N)N)NC(=O)[C@H](CCCNC(=N)N)NC(=O)[C@H](CCC(N)=O)NC(=O)[C@H](CCCNC(=N)N)NC(=O)[C@H](CCCNC(=N)N)NC(=O)[C@H](CCCCN)NC(=O)[C@H](CCCCN)NC(=O)[C@@H](N)CCCNC(=N)N)C(=O)N1CCC[C@H]1C(=O)N[C@@H](Cc1ccccc1)C(=O)N[C@@H](CCCNC(=N)N)C(=O)N[C@H]1CSSC[C@@H](C(=O)O)NC(=O)[C@H](Cc2ccccc2)NC(=O)[C@H](C)NC(=O)[C@H](C)NC(=O)[C@H](Cc2ccccc2)NC1=O [TAT-F9-KOV2] (HELM PEPTIDE1{R.K.K.R.R.Q.R.R.R.G.G.A.A.K.L.P.F.R.C.F.A.A.F.C}$PEPTIDE1,PEPTIDE1,19:R3-24:R3$$$V2.0) | >128 | >128 | 5.65 | 8 | 16 | 32 | 8 | 8 | 8 | 8 | 8 |  | 5.00 | 4.01 | 5.66 | 4.35
CC(C)C[C@H](NC(=O)[C@H](CCCCN)NC(=O)[C@H](C)NC(=O)[C@H](C)NC(=O)CNC(=O)CNC(=O)[C@H](CCCNC(=N)N)NC(=O)[C@H](CCCNC(=N)N)NC(=O)[C@H](CCCNC(=N)N)NC(=O)[C@H](CCC(N)=O)NC(=O)[C@H](CCCNC(=N)N)NC(=O)[C@H](CCCNC(=N)N)NC(=O)[C@H](CCCCN)NC(=O)[C@H](CCCCN)NC(=O)[C@@H](N)CCCNC(=N)N)C(=O)N1CCC[C@H]1C(=O)N[C@@H](Cc1ccccc1)C(=O)N[C@@H](CCCNC(=N)N)C(=O)N[C@H]1CSSC[C@@H](C(=O)O)NC(=O)[C@H](Cc2ccccc2)NC(=O)[C@H](C)NC(=O)[C@H](C)NC(=O)[C@H](CCCCN)NC1=O [TAT-KOV2] (HELM PEPTIDE1{R.K.K.R.R.Q.R.R.R.G.G.A.A.K.L.P.F.R.C.K.A.A.F.C}$PEPTIDE1,PEPTIDE1,19:R3-24:R3$$$V2.0) | >128 | >128 |  | 4 | 8 | 16 | 4 | 4 | 4 | 4 | 4 | N.I. | 4.03 | 3.78 | 4.34 | 4.01
